Measured values as given in patent US8063220B2, “Sulfonyl-quinoline derivatives” (Richter Gedeon Nyrt., priority 2007, dated 2011).

Legend:
rat mGluR1 = biological target: T1, rat mGluR1 (Rattus norvegicus, UniProt P23385); experiment: MGluR1 receptor binding test ([3H]R214127 displacement, rat cerebellar membrane preparation); conditions: rat mGluR1, [3H]R214127 3 nM; read-out: mGlu1 Ki
T1 construct: rat cerebellar membrane preparation was used; from tissue; host or cells: rat cerebellum (membrane preparation)
How it was run: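 Rat cerebellar membranes with 3 nM [3H]R214127; nonspecific binding defined by 1 μM R214127. IC50 from displacement curves by nonlinear regression, converted to Ki by Cheng–Prusoff.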

rat mGluR5 = biological target: T2, rat mGluR5 (Rattus norvegicus, UniProt P31424); experiment: MGluR5 receptor binding test ([3H]-M-MPEP displacement, rat cerebro-cortical membrane preparation); conditions: rat mGluR5, [3H]-M-MPEP 2 nM; read-out: mGlu5 Ki
T2 construct: Rat cerebro-cortical membrane preparation was used; from tissue; host or cells: rat cerebral cortex (membrane preparation)
Protocol: Rat cerebro-cortical membrane preparation was used to determine the binding characteristics of reference compounds and novel compounds to the rat mGluR5. The A18 cell line expressing hmGluR5a (purchased from Euroscreen) was used to determine binding characteristics of the chemical compounds to the human mGluR5a receptor. [3H]-M-MPEP (2 nM) was used as radioligand. The nonspecific binding was determined in the presence of 10 μM M-MPEP.

T1 sequence (P23385 19-1199): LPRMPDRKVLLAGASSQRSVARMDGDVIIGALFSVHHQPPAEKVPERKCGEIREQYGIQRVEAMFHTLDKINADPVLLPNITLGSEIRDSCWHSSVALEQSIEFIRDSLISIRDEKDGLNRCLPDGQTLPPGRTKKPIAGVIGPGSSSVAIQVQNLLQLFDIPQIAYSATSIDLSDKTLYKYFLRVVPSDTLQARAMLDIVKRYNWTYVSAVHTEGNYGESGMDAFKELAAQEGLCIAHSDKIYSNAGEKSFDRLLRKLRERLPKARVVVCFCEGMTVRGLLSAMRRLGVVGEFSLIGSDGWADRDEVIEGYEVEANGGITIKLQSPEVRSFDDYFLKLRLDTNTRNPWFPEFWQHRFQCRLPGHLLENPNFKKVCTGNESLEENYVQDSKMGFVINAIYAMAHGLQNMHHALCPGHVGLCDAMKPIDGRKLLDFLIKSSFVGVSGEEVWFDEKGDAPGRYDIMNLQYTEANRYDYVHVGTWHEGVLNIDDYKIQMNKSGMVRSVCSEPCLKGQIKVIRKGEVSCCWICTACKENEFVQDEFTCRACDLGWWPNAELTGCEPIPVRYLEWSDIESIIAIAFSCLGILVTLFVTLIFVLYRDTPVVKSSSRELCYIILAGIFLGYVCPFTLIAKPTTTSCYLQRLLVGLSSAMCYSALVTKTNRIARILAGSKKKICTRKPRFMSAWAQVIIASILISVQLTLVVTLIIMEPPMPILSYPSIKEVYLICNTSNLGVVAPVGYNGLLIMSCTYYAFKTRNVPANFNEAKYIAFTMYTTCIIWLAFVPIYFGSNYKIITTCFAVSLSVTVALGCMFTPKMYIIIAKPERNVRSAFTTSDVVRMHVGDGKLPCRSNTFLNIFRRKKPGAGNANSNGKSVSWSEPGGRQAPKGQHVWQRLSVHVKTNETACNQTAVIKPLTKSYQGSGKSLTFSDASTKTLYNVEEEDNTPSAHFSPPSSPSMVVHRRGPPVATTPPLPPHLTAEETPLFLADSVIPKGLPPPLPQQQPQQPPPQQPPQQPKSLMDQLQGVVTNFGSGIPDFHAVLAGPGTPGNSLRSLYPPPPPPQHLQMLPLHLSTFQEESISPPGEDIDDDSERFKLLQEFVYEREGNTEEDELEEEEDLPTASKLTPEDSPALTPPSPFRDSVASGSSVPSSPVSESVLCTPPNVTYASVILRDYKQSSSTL
T2 sequence (P31424 21-1203): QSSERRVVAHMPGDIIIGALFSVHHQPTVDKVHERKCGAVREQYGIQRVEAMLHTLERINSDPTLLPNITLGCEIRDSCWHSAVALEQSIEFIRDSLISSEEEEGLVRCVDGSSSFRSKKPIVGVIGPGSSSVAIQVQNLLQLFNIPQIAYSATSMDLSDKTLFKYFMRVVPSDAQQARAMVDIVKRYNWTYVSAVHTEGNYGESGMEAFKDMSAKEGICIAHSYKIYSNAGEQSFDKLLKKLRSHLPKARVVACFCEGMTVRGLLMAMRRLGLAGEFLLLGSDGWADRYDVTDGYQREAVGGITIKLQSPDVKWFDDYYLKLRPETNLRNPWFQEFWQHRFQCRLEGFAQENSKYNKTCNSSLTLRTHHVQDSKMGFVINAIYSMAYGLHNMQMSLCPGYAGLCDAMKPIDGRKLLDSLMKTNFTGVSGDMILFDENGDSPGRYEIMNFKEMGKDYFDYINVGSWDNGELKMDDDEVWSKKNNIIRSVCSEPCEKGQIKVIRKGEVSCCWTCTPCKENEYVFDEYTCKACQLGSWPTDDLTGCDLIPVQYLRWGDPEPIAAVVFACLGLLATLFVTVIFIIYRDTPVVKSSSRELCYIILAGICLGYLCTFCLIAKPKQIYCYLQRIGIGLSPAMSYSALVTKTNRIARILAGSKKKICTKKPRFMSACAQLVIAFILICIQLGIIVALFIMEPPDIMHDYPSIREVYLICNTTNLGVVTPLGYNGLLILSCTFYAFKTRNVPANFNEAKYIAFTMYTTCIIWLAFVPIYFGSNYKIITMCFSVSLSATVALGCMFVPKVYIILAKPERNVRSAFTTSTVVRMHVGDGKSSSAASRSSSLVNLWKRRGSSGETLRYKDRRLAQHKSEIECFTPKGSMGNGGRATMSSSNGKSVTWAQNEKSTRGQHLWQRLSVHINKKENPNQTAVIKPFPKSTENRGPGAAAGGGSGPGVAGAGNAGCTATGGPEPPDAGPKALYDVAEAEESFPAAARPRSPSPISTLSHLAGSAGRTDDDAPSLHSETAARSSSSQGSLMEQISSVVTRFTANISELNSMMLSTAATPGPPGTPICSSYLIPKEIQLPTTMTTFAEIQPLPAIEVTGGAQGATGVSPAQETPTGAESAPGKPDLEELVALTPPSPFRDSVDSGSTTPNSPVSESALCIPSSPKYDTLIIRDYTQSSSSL

Compound | Ki (rat mGluR1) [nM] | Ki (rat mGluR5) [nM]
O=S(=O)(c1cccc(F)c1)c1cnc2c(F)cccc2c1-c1ccc(F)cc1 [Compound 63] | 200 to 500 | < 200
O=S(=O)(c1ccc(F)cc1)c1cnc2cc(Cl)ccc2c1-c1ccc(Cl)cc1 [Compound 172] | > 500 | < 200
O=S(=O)(c1ccc(F)cc1)c1cnc2ccc(F)cc2c1-c1ccc(F)cc1 [Compound 28] | > 500 | > 500
O=S(=O)(c1ccc(F)cc1)c1cnc2c(F)cccc2c1-c1ccc(Cl)cc1 [Compound 21] | 200 to 500 | < 200
O=S(=O)(c1ccc(F)cc1)c1cnc2cc(Cl)ccc2c1-c1ccc(F)cc1 [Compound 179] | > 500 | < 200
COc1ccc(S(=O)(=O)c2cnc3ccc(F)cc3c2-c2cccc(Cl)c2)cc1OC [Compound 70] | > 500 | > 500
N#Cc1cc(F)cc(S(=O)(=O)c2cnc3cc(F)ccc3c2-c2ccc(Cl)cc2)c1 [Compound 268] | > 500 | < 200
O=S(=O)(c1cc(Cl)cc(Cl)c1)c1cnc2cc(Cl)ccc2c1-c1cccc(F)c1 [Compound 166] | > 500 | < 200
O=S(=O)(c1ccc(F)c(F)c1)c1cnc2cc(F)ccc2c1-c1ccc(F)cc1 [Compound 101, 3-(3,4-difluoro-benzenesulfonyl)-7-fluoro-4-(4-fluoro-phenyl)-quinoline] | 200 to 500 | < 200
O=S(=O)(c1ccc(F)c(F)c1)c1cnc2cc(Cl)ccc2c1-c1ccc(F)cc1 [Compound 182] | > 500 | < 200
COc1ccc(-c2c(S(=O)(=O)c3cc(Cl)cc(Cl)c3)cnc3c(F)cccc23)cc1 [Compound 107] | > 500 | < 200
O=S(=O)(c1ccc(F)cc1)c1cnc2ccc(Cl)cc2c1-c1cccc(Cl)c1 [Compound 3] | > 500 | > 500
COc1cccc(S(=O)(=O)c2cnc3cc(F)ccc3c2-c2cccc(Cl)c2)c1 [Compound 43] | > 500 | < 200
O=S(=O)(c1cc(F)cc(F)c1)c1cnc2ccc(F)cc2c1-c1cccc(Cl)c1 [Compound 64] | > 500 | > 500
O=S(=O)(c1cc(F)cc(F)c1)c1cnc2c(F)cccc2c1-c1ccc(Cl)cc1 [Compound 116] | 200 to 500 | < 200
O=S(=O)(c1cc(F)cc(F)c1)c1cnc2ccc(F)cc2c1-c1ccc(Cl)cc1 [Compound 132] | > 500 | 200 to 500
COc1ccc(-c2c(S(=O)(=O)c3ccc(F)cc3)cnc3cc(F)ccc23)cc1 [Compound 10] | > 500 | 200 to 500
O=S(=O)(c1cc(F)cc(F)c1)c1cnc2cc(Cl)c(F)cc2c1-c1ccc(Cl)cc1 [Compound 201] | > 500 | > 500
O=S(=O)(c1cc(F)cc(F)c1)c1cnc2cc(Cl)ccc2c1-c1ccc(F)cc1 [Compound 181] | > 500 | < 200
O=S(=O)(c1ccc(F)c(F)c1)c1cnc2ccccc2c1-c1ccc(F)cc1 [Compound 237] | > 500 | < 200
O=S(=O)(c1cc(Cl)cc(Cl)c1)c1cnc2cc(F)ccc2c1-c1ccccc1F [Compound 257] | > 500 | < 200

Compound | Ki (rat mGluR1) [nM] | Ki (rat mGluR5) [nM]
O=S(=O)(c1ccc(F)c(F)c1)c1cnc2cc(F)ccc2c1-c1cccc(Cl)c1 [Compound 97] | 200 to 500 | 200 to 500
N#Cc1cc(F)cc(S(=O)(=O)c2cnc3c(N)cccc3c2-c2cccc(F)c2)c1 [Compound 279] | > 500 | < 200
N#Cc1cc(F)cc(S(=O)(=O)c2cnc3ccccc3c2-c2cccc(Cl)c2)c1 [Compound 226] | > 500 | < 200
COc1ccc(S(=O)(=O)c2cnc3ccc(F)cc3c2-c2cccc(F)c2)cc1Cl [Compound 79] | > 500 | < 200
COc1cccc(-c2c(S(=O)(=O)c3cc(F)cc(F)c3)cnc3ccc(F)cc23)c1 [Compound 134] | > 500 | 200 to 500
O=S(=O)(c1cc(Cl)cc(Cl)c1)c1cnc2cc(F)ccc2c1-c1ccc(Cl)cc1 [Compound 157] | 200 to 500 | < 200
O=S(=O)(c1cccc(F)c1)c1cnc2c(F)cccc2c1-c1cccc(F)c1 [Compound 60] | 200 to 500 | < 200
COc1ccc(-c2c(S(=O)(=O)c3cccc(F)c3)cnc3cc(F)ccc23)cc1 [Compound 42] | > 500 | 200 to 500
Cc1ccc(S(=O)(=O)c2cnc3cc(F)ccc3c2-c2cccc(F)c2)cc1C [Compound 18] | > 500 | < 200
COc1ccc(-c2c(S(=O)(=O)c3ccc(F)c(F)c3)cnc3c(F)cccc23)cc1 [Compound 122] | > 500 | < 200
O=S(=O)(c1ccc(Cl)cc1)c1cnc2c(Cl)cccc2c1-c1ccc(Cl)c(Cl)c1 [Compound 184] | > 500 | > 500
COc1ccc(-c2c(S(=O)(=O)c3cc(F)cc(F)c3)cnc3c(F)cccc23)cc1 [Compound 117] | > 500 | < 200
O=S(=O)(c1cc(Cl)cc(Cl)c1)c1cnc2cc(F)ccc2c1-c1cccc(F)c1 [Compound 80] | 200 to 500 | < 200
O=S(=O)(c1ccc(Cl)c(F)c1)c1cnc2cc(F)c(Cl)cc2c1-c1ccc(F)cc1 [Compound 190] | > 500 | < 200
N#Cc1cc(S(=O)(=O)c2cnc3cc(F)ccc3c2-c2ccc(Cl)cc2)ccc1F [Compound 274] | > 500 | < 200
O=S(=O)(c1cccc(F)c1)c1cnc2c(F)cccc2c1-c1ccc(Cl)cc1 [Compound 59] | 200 to 500 | < 200
O=S(=O)(c1cc(F)cc(F)c1)c1cnc2cc(F)ccc2c1-c1cccc(F)c1 [Compound 88] | 200 to 500 | < 200
O=S(=O)(c1ccc(F)c(F)c1)c1cnc2c(F)c(Cl)ccc2c1-c1cccc(F)c1 [Compound 196] | > 500 | < 200
O=S(=O)(c1ccc(F)c(F)c1)c1cnc2cc(F)ccc2c1-c1cccc(F)c1 [Compound 98] | 200 to 500 | < 200
N#Cc1cccc(S(=O)(=O)c2cnc3cc(Cl)ccc3c2-c2cccc(Cl)c2)c1 [Compound 254] | 200 to 500 | < 200
COc1cccc(-c2c(S(=O)(=O)c3cc(Cl)cc(Cl)c3)cnc3ccc(F)cc23)c1 [Compound 126] | > 500 | < 200

Compound | Ki (rat mGluR1) [nM] | Ki (rat mGluR5) [nM]
COc1ccc(-c2c(S(=O)(=O)c3ccc(F)cc3)cnc3c(F)cccc23)cc1 [Compound 52] | > 500 | < 200
O=S(=O)(c1ccc(F)cc1)c1cnc2ccc(F)cc2c1-c1cccc(Cl)c1 [Compound 24] | > 500 | > 500
COc1ccc(S(=O)(=O)c2cnc3ccc(F)cc3c2-c2ccc(Cl)cc2)cc1OC [Compound 164] | > 500 | > 500
COc1cccc(-c2c(S(=O)(=O)c3ccc(OC)c(Cl)c3)cnc3ccc(F)cc23)c1 [Compound 75] | > 500 | < 200
COc1ccc(-c2c(S(=O)(=O)c3ccc(OC)cc3)cnc3ccc(F)cc23)cc1 [Compound 163] | > 500 | < 200
Cc1ccc(S(=O)(=O)c2cnc3c(F)cccc3c2-c2ccc(Cl)cc2)cc1F [Compound 110] | > 500 | < 200
N#Cc1cc(F)cc(S(=O)(=O)c2cnc3cc(Cl)ccc3c2-c2cccc(F)c2)c1 [Compound 221] | 200 to 500 | < 200
O=S(=O)(c1ccc(F)c(F)c1)c1cnc2cc(F)ccc2c1-c1ccc(F)c(F)c1 [Compound 251] | > 500 | < 200
O=S(=O)(c1ccc(F)cc1)c1cnc2ccc(Cl)cc2c1-c1ccc(Cl)cc1 [Compound 2] | > 500 | > 500
O=S(=O)(c1ccc(F)c(F)c1)c1cnc2cc(Cl)ccc2c1-c1cccc(F)c1 [Compound 170, 7-chloro-3-(3,4-difluoro-benzenesulfonyl)-4-(3-fluoro-phenyl)-quinoline] | > 500 | < 200
O=S(=O)(c1cc(F)cc(F)c1)c1cnc2cc(F)ccc2c1-c1cccc(Cl)c1 [Compound 87] | > 500 | 200 to 500
N#Cc1cc(F)cc(S(=O)(=O)c2cnc3cc(F)ccc3c2-c2cccc(F)c2)c1 [Compound 228] | > 500 | < 200
O=S(=O)(c1ccc(Cl)c(Cl)c1)c1cnc2c(Cl)cccc2c1-c1cccc(Cl)c1 [Compound 7] | < 200 | < 200
N#Cc1cc(S(=O)(=O)c2cnc3ccccc3c2-c2cccc(Cl)c2)ccc1F [Compound 217] | > 500 | < 200
COc1ccc(-c2c(S(=O)(=O)c3ccc(C)c(C)c3)cnc3ccc(F)cc23)cc1 [Compound 147] | > 500 | < 200
COc1cccc(-c2c(S(=O)(=O)c3cccc(C#N)c3)cnc3ccc(F)cc23)c1 [Compound 68, 3-(3-cyano-benzenesulfonyl)-6-fluoro-4-(3-methoxy-phenyl)-quinoline] | > 500 | < 200
COc1ccc(-c2c(S(=O)(=O)c3ccc(C)c(F)c3)cnc3c(F)cccc23)cc1 [Compound 112] | > 500 | < 200
COc1ccc(-c2c(S(=O)(=O)c3ccc(F)c(Cl)c3)cnc3cc(F)ccc23)cc1 [Compound 104] | 200 to 500 | < 200
O=S(=O)(c1cc(F)cc(F)c1)c1cnc2cc(F)ccc2c1-c1ccc(Cl)cc1 [Compound 35, 4-(4-chloro-phenyl)-3-(3,5-difluoro-benzenesulfonyl)-7-fluoro-quinoline] | > 500 | < 200
